From PubChem BioAssay (NCI)
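Compound exposure: 48 hours, 5 concentrations, 96-well plates. TGI: concentration producing complete growth inhibition.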

Tests used:
Experiment in all cases: DTP human tumour cell line panel, 48 h
786-0 renal = test system: 786-0 renal
A498 renal = test system: A498 renal
A549 NSCLC = test system: A549 NSCLC
ACHN renal = test system: ACHN renal
CAKI-1 renal = test system: CAKI-1 renal
CCRF-CEM leukemia = test system: CCRF-CEM leukemia
COLO 205 colon = test system: COLO 205 colon
DLD-1 colon = test system: DLD-1 colon
DMS 114 small cell lung = test system: DMS 114 small cell lung
DMS 273 small cell lung = test system: DMS 273 small cell lung
EKVX NSCLC = test system: EKVX NSCLC
HCC-2998 colon = test system: HCC-2998 colon
HCT-116 colon = test system: HCT-116 colon
HCT-15 colon = test system: HCT-15 colon
HL-60(TB) leukemia = test system: HL-60(TB) leukemia
HOP-62 NSCLC = test system: HOP-62 NSCLC
HOP-92 NSCLC = test system: HOP-92 NSCLC
HT29 colon = test system: HT29 colon
IGROV1 ovarian = test system: IGROV1 ovarian
K-562 leukemia = test system: K-562 leukemia
KM12 colon = test system: KM12 colon
KM20L2 colon = test system: KM20L2 colon
LOX IMVI melanoma = test system: LOX IMVI melanoma
LXFL 529 NSCLC = test system: LXFL 529 NSCLC
M14 melanoma = test system: M14 melanoma
M19-MEL melanoma = test system: M19-MEL melanoma
MALME-3M melanoma = test system: MALME-3M melanoma
MOLT-4 leukemia = test system: MOLT-4 leukemia
NCI-H226 lung = test system: NCI-H226 lung
NCI-H23 lung = test system: NCI-H23 lung
NCI-H460 lung = test system: NCI-H460 lung
NCI-H522 lung = test system: NCI-H522 lung
OVCAR-3 ovarian = test system: OVCAR-3 ovarian
OVCAR-4 ovarian = test system: OVCAR-4 ovarian
OVCAR-5 ovarian = test system: OVCAR-5 ovarian
OVCAR-8 ovarian = test system: OVCAR-8 ovarian
RXF 393 renal = test system: RXF 393 renal
SF-268 CNS = test system: SF-268 CNS
SF-295 CNS = test system: SF-295 CNS
SF-539 CNS = test system: SF-539 CNS
SK-MEL-2 melanoma = test system: SK-MEL-2 melanoma
SK-MEL-28 melanoma = test system: SK-MEL-28 melanoma
SK-MEL-5 melanoma = test system: SK-MEL-5 melanoma
SK-OV-3 ovarian = test system: SK-OV-3 ovarian
SN12C renal = test system: SN12C renal
SNB-19 CNS = test system: SNB-19 CNS
SNB-75 CNS = test system: SNB-75 CNS
SNB-78 CNS = test system: SNB-78 CNS
SR leukemia = test system: SR leukemia
SW-620 colon = test system: SW-620 colon
TK-10 renal = test system: TK-10 renal
U251 CNS = test system: U251 CNS
UACC-257 melanoma = test system: UACC-257 melanoma
UACC-62 melanoma = test system: UACC-62 melanoma
UO-31 renal = test system: UO-31 renal
BT-549 breast = test system: BT-549 breast
DU-145 prostate = test system: DU-145 prostate
HS 578T breast = test system: HS 578T breast
MCF7 breast = test system: MCF7 breast
MDA-MB-231 breast = test system: MDA-MB-231 breast
MDA-MB-435 = test system: MDA-MB-435
MDA-N = test system: MDA-N
NCI/ADR-RES ovarian = test system: NCI/ADR-RES ovarian
PC-3 prostate = test system: PC-3 prostate
RPMI-8226 leukemia = test system: RPMI-8226 leukemia
T-47D breast = test system: T-47D breast

## O=C1CCCc2ccc([N+](=O)[O-])c(O)c21
786-0 renal
  TGI: > 100 µM
A498 renal
  TGI: > 100 µM
A549 NSCLC
  TGI: > 100 µM
ACHN renal
  TGI: > 100 µM
CAKI-1 renal
  TGI: > 100 µM
CCRF-CEM leukemia
  TGI: > 100 µM
COLO 205 colon
  TGI: > 100 µM
DLD-1 colon
  TGI: > 100 µM
DMS 114 small cell lung
  TGI: > 100 µM
DMS 273 small cell lung
  TGI: > 100 µM
EKVX NSCLC
  TGI: > 100 µM
HCC-2998 colon
  TGI: > 100 µM
HCT-116 colon
  TGI: > 100 µM
HCT-15 colon
  TGI: > 100 µM
HL-60(TB) leukemia
  TGI: > 100 µM
HOP-62 NSCLC
  TGI: > 100 µM
HOP-92 NSCLC
  TGI: > 100 µM
HT29 colon
  TGI: > 100 µM
IGROV1 ovarian
  TGI: > 100 µM
K-562 leukemia
  TGI: > 100 µM
KM12 colon
  TGI: > 100 µM
KM20L2 colon
  TGI: > 100 µM
LOX IMVI melanoma
  TGI: > 100 µM
LXFL 529 NSCLC
  TGI: > 100 µM
M14 melanoma
  TGI: > 100 µM
M19-MEL melanoma
  TGI: > 100 µM
MALME-3M melanoma
  TGI: > 100 µM
MOLT-4 leukemia
  TGI: > 100 µM
NCI-H226 lung
  TGI: > 100 µM
NCI-H23 lung
  TGI: > 100 µM
NCI-H460 lung
  TGI: > 100 µM
NCI-H522 lung
  TGI: > 100 µM
OVCAR-3 ovarian
  TGI: > 100 µM
OVCAR-4 ovarian
  TGI: > 100 µM
OVCAR-5 ovarian
  TGI: > 100 µM
OVCAR-8 ovarian
  TGI: > 100 µM
RXF 393 renal
  TGI: > 100 µM
SF-268 CNS
  TGI: > 100 µM
SF-295 CNS
  TGI: > 100 µM
SF-539 CNS
  TGI: > 100 µM
SK-MEL-2 melanoma
  TGI: > 100 µM
SK-MEL-28 melanoma
  TGI: > 100 µM
SK-MEL-5 melanoma
  TGI: > 100 µM
SK-OV-3 ovarian
  TGI: > 100 µM
SN12C renal
  TGI: > 100 µM
SNB-19 CNS
  TGI: > 100 µM
SNB-75 CNS
  TGI: > 100 µM
SNB-78 CNS
  TGI: > 100 µM
SR leukemia
  TGI: > 100 µM
SW-620 colon
  TGI: > 100 µM
TK-10 renal
  TGI: > 100 µM
U251 CNS
  TGI: > 100 µM
UACC-257 melanoma
  TGI: > 100 µM
UACC-62 melanoma
  TGI: > 100 µM
UO-31 renal
  TGI: > 100 µM

## O=S(=O)(CC(Cl)c1ccccc1)c1nc2ccccc2s1 (stereo not drawn)
786-0 renal
  TGI: 19.4 µM
A498 renal
  TGI: 35.1 µM
A549 NSCLC
  TGI: 43.1 µM
ACHN renal
  TGI: 29.1 µM
BT-549 breast
  TGI: 8.72 µM
CAKI-1 renal
  TGI: 4.4 µM
CCRF-CEM leukemia
  TGI: 4.28 µM
COLO 205 colon
  TGI: 22.2 µM
DU-145 prostate
  TGI: 30.2 µM
EKVX NSCLC
  TGI: 35.4 µM
HCC-2998 colon
  TGI: 31.8 µM
HCT-116 colon
  TGI: 23.6 µM
HCT-15 colon
  TGI: 21.9 µM
HL-60(TB) leukemia
  TGI: 4.43 µM
HOP-62 NSCLC
  TGI: 41.1 µM
HOP-92 NSCLC
  TGI: 9.38 µM
HS 578T breast
  TGI: > 69 µM
HT29 colon
  TGI: 21.2 µM
IGROV1 ovarian
  TGI: 24.2 µM
K-562 leukemia
  TGI: 7.43 µM
KM12 colon
  TGI: 32 µM
LOX IMVI melanoma
  TGI: 4.04 µM
M14 melanoma
  TGI: 7.2 µM
MALME-3M melanoma
  TGI: 23.6 µM
MCF7 breast
  TGI: 23.3 µM
MDA-MB-231 breast
  TGI: 30.4 µM
MDA-MB-435
  TGI: 20.5 µM
MDA-N
  TGI: 18.1 µM
MOLT-4 leukemia
  TGI: 7.64 µM
NCI-H226 lung
  TGI: 22.1 µM
NCI-H23 lung
  TGI: 25.5 µM
NCI-H460 lung
  TGI: 52.4 µM
NCI-H522 lung
  TGI: 4.89 µM
NCI/ADR-RES ovarian
  TGI: 49 µM
OVCAR-3 ovarian
  TGI: 23.2 µM
OVCAR-4 ovarian
  TGI: 51.1 µM
OVCAR-5 ovarian
  TGI: 28.8 µM
OVCAR-8 ovarian
  TGI: 23.8 µM
PC-3 prostate
  TGI: 29.9 µM
RPMI-8226 leukemia
  TGI: 9.65 µM
RXF 393 renal
  TGI: 42 µM
SF-268 CNS
  TGI: 33.1 µM
SF-295 CNS
  TGI: 32.6 µM
SF-539 CNS
  TGI: 23.9 µM
SK-MEL-2 melanoma
  TGI: 37.4 µM
SK-MEL-28 melanoma
  TGI: 29.7 µM
SK-MEL-5 melanoma
  TGI: 16.7 µM
SK-OV-3 ovarian
  TGI: 32.9 µM
SN12C renal
  TGI: 30.3 µM
SNB-19 CNS
  TGI: 32.3 µM
SNB-75 CNS
  TGI: 27.8 µM
SR leukemia
  TGI: 4.55 µM
SW-620 colon
  TGI: 20.7 µM
T-47D breast
  TGI: 41.7 µM
TK-10 renal
  TGI: 34.2 µM
U251 CNS
  TGI: 25.9 µM
UACC-257 melanoma
  TGI: 23.2 µM
UACC-62 melanoma
  TGI: 40 µM
UO-31 renal
  TGI: 29.4 µM

## O=C(N/C(=C\c1ccccc1)c1nc2ccccc2c(=O)o1)c1ccccc1
786-0 renal
  TGI: > 100 µM
A498 renal
  TGI: > 100 µM
A549 NSCLC
  TGI: > 100 µM
ACHN renal
  TGI: > 100 µM
BT-549 breast
  TGI: 66.8 µM
CAKI-1 renal
  TGI: > 100 µM
CCRF-CEM leukemia
  TGI: > 100 µM
COLO 205 colon
  TGI: > 100 µM
DU-145 prostate
  TGI: > 100 µM
EKVX NSCLC
  TGI: > 100 µM
HCC-2998 colon
  TGI: > 100 µM
HCT-116 colon
  TGI: > 100 µM
HCT-15 colon
  TGI: > 100 µM
HL-60(TB) leukemia
  TGI: > 100 µM
HOP-62 NSCLC
  TGI: > 100 µM
HOP-92 NSCLC
  TGI: > 100 µM
HS 578T breast
  TGI: 75.7 µM
HT29 colon
  TGI: > 100 µM
IGROV1 ovarian
  TGI: > 100 µM
K-562 leukemia
  TGI: > 100 µM
KM12 colon
  TGI: > 100 µM
LOX IMVI melanoma
  TGI: > 100 µM
M14 melanoma
  TGI: > 100 µM
MALME-3M melanoma
  TGI: > 100 µM
MCF7 breast
  TGI: > 100 µM
MDA-MB-231 breast
  TGI: > 71.9 µM
MDA-MB-435
  TGI: > 100 µM
MDA-N
  TGI: > 100 µM
MOLT-4 leukemia
  TGI: > 100 µM
NCI-H226 lung
  TGI: > 100 µM
NCI-H23 lung
  TGI: > 100 µM
NCI-H460 lung
  TGI: > 100 µM
NCI-H522 lung
  TGI: > 100 µM
NCI/ADR-RES ovarian
  TGI: > 100 µM
OVCAR-3 ovarian
  TGI: > 100 µM
OVCAR-4 ovarian
  TGI: > 100 µM
OVCAR-5 ovarian
  TGI: > 100 µM
OVCAR-8 ovarian
  TGI: > 100 µM
PC-3 prostate
  TGI: > 100 µM
RPMI-8226 leukemia
  TGI: > 100 µM
RXF 393 renal
  TGI: > 100 µM
SF-268 CNS
  TGI: > 78.2 µM
SF-295 CNS
  TGI: > 100 µM
SF-539 CNS
  TGI: > 100 µM
SK-MEL-2 melanoma
  TGI: > 100 µM
SK-MEL-28 melanoma
  TGI: > 100 µM
SK-MEL-5 melanoma
  TGI: > 100 µM
SK-OV-3 ovarian
  TGI: > 100 µM
SN12C renal
  TGI: > 100 µM
SNB-19 CNS
  TGI: > 67.1 µM
SNB-75 CNS
  TGI: > 86.3 µM
SR leukemia
  TGI: > 100 µM
SW-620 colon
  TGI: > 100 µM
T-47D breast
  TGI: > 100 µM
TK-10 renal
  TGI: > 100 µM
U251 CNS
  TGI: > 83.3 µM
UACC-257 melanoma
  TGI: > 72.6 µM
UACC-62 melanoma
  TGI: > 100 µM
UO-31 renal
  TGI: 97.3 µM
